According to ChEMBL document CHEMBL1131670, “N-hydroxyurea and hydroxamic acid inhibitors of cyclooxygenase and 5-lipoxygenase” (Bioorg Med Chem Lett, 1999):

What was measured:
[1] = target: T1, Polyunsaturated fatty acid 5-lipoxygenase (Rattus norvegicus) (UniProt P12527); test: Inhibitory activity against 5-lipoxygenase (5-LO) using broken rat […] leukemia cells (RBL-1)at 10 uM; assay type: cell-based
T1 sequence (whole entry): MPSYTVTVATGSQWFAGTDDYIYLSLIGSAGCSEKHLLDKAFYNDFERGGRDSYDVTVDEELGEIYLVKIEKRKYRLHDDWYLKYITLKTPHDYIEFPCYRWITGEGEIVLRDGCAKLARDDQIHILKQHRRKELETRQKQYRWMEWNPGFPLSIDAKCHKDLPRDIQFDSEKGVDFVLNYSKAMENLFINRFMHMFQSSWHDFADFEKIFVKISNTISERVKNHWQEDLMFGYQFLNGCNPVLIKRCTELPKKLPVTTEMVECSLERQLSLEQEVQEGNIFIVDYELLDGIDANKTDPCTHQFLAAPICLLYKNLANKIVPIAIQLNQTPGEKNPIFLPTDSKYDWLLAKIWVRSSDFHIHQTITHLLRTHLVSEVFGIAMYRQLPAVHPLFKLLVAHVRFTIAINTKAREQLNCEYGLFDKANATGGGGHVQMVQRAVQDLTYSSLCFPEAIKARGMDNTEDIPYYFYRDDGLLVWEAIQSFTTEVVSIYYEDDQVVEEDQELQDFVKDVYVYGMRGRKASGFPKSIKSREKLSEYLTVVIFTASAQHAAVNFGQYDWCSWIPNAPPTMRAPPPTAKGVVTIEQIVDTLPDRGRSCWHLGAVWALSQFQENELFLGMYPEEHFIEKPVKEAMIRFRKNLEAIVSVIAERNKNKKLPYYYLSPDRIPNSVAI

[2] = target: T2, Prostaglandin G/H synthase 1 (Ovis aries) (UniProt P05979); test: Inhibitory activity against Cyclooxygenase using sheep seminal vesicle (SSV) enzyme (COX-1) at 10 uM; assay type: tissue-based
T2 sequence (whole entry): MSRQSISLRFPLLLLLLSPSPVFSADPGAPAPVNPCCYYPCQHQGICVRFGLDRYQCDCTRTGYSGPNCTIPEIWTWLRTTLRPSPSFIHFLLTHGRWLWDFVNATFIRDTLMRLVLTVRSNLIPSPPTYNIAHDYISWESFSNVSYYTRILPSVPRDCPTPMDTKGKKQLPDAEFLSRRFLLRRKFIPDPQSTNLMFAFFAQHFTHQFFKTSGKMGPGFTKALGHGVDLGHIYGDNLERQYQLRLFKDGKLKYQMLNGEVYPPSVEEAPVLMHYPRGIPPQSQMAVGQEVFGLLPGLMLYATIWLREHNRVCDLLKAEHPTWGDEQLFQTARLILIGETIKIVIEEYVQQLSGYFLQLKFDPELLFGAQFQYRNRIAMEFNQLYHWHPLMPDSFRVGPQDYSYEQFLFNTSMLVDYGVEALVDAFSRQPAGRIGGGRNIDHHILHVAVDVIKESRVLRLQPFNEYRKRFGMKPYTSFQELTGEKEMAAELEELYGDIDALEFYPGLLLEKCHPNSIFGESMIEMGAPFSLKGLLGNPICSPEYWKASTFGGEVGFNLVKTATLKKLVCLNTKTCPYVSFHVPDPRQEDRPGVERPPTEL

[3] = target: T3, Cyclooxygenase (Rattus norvegicus, UniProt P35355+Q63921); test: Inhibitory activity against cyclooxygenase (COX) in intact rat […] leukemia cells (RBL-1); assay type: cell-based
T3 sequence (P35355 whole entry): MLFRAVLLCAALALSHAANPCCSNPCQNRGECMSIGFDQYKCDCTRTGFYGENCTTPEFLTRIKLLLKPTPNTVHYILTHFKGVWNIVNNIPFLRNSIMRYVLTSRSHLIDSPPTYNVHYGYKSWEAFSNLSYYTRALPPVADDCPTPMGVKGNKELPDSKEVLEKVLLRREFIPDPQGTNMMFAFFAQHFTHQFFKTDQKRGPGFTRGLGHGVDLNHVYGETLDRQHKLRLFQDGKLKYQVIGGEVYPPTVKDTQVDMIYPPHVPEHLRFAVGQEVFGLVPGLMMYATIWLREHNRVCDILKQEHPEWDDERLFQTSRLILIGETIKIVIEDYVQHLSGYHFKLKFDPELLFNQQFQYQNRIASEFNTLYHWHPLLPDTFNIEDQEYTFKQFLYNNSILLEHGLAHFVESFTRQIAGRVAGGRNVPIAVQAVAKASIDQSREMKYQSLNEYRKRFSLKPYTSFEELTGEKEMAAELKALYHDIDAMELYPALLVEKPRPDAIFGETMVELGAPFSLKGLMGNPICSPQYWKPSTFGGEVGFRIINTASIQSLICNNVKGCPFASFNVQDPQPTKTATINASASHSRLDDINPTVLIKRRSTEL
T3 sequence (Q63921 whole entry): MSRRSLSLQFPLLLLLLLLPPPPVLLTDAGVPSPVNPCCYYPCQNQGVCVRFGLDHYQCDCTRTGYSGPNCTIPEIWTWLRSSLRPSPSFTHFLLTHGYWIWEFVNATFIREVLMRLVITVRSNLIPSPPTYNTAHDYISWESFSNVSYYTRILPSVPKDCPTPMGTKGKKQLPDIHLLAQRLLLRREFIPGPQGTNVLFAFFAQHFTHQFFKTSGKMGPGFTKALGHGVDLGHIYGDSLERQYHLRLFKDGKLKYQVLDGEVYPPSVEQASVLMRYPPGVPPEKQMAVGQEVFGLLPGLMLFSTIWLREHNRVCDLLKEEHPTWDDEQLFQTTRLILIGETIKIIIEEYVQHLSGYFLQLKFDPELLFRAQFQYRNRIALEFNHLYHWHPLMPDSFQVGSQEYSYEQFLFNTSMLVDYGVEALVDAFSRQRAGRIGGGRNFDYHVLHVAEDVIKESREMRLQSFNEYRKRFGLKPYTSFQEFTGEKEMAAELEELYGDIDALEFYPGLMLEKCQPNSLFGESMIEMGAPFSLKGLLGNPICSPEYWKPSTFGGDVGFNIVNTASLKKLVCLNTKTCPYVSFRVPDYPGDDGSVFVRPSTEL

[4] = target: T2, Prostaglandin G/H synthase 1 (Ovis aries); test: Inhibitory activity against Cyclooxygenase using sheep seminal vesicle (SSV) enzyme (COX-1)at 10 uM; assay type: tissue-based
[5] = target: T1, Polyunsaturated fatty acid 5-lipoxygenase (Rattus norvegicus); test: Inhibitory activity against 5-lipoxygenase (5-LO) using broken rat […] leukemia cells (RBL-1) at 10 uM; assay type: cell-based
[6] = target: Cyclooxygenase (Rattus norvegicus) (UniProt P35355+Q63921); test: Inhibitory activity against Cyclooxygenase (COX) using broken rat […] leukemia cells (RBL-1) at 10 uM; assay type: cell-based
[7] = target: T3, Cyclooxygenase; test: Inhibitory activity against Cyclooxygenase (COX) using broken rat […] leukemia cells (RBL-1); assay type: cell-based

Row | inhibition [1] [%] | inhibition [2] [%] | IC50 [3] [µM] | inhibition [4] [%] | inhibition [5] [%] | inhibition [6] [%] | IC50 [7] [µM] | SMILES
1 | – | – | 6.2 | – | – | 0 | – | COc1ccc(-n2nc(C#CC(C)N(O)C(N)=O)cc2-c2ccc(Cl)cc2)cc1 (stereo unspecified)
2 | – | – | 0.18 | – | 93 | – | – | CCc1ccc(-c2cc(C#CC(C)N(O)C(=O)C(C)C)nn2-c2ccc(OC)cc2)cc1 (stereo unspecified)
3 | – | – | 0.22 | – | – | – | 0.01 | CCC(C#Cc1cc(-c2ccc(C)cc2)n(-c2ccc(OC)cc2)n1)N(O)C(C)=O (stereo unspecified)
4 | – | – | 0.29 | – | 77 | 84 | – | COC(=O)N(O)C(C)C#Cc1cc(-c2ccc(Cl)cc2)n(-c2ccc(OC)cc2)n1 (stereo unspecified)
5 | – | – | – | – | 70 | 61 | – | COc1ccc(-n2nc(C#CC(C)N(O)C(=O)c3ccco3)cc2-c2ccc(C)cc2)cc1 (stereo unspecified)
6 | – | – | 0.11 | – | – | – | 0.01 | COc1ccc(-n2nc(C#CC(C)N(O)C(C)=O)cc2-c2ccc(C)cc2)cc1 (stereo unspecified)
7 | – | – | 1.4 | 10 | – | – | 9.4 | COc1ccc(-n2nc(C#CC(C)N(O)C(N)=O)cc2-c2ccc(C)cc2)cc1 (stereo unspecified)
8 | 71 | 66 | 3.4 | – | – | – | – | CCOC(=O)C(=O)N(O)C(C)C#Cc1cc(-c2ccc(C)cc2)n(-c2ccc(OC)cc2)n1 (stereo unspecified)
9 | – | 22 | 2.1 | – | – | – | 15.9 | CCC(C#Cc1cc(-c2ccc(C)cc2)n(-c2ccc(OC)cc2)n1)N(O)C(N)=O (stereo unspecified)
10 | – | 29 | 1.2 | – | – | – | 4.6 | COc1ccc(-n2nc(C#CC(C(C)C)N(O)C(N)=O)cc2-c2ccc(C)cc2)cc1 (stereo unspecified)
11 | 100 | – | 1.7 | – | – | 86 | – | CCc1ccc(-c2cc(C#CC(C)N(O)C(=O)CCl)nn2-c2ccc(OC)cc2)cc1 (stereo unspecified)
12 | – | – | 0.34 | – | – | – | 0.06 | CCc1ccc(-c2cc(C#CC(C)N(O)C(C)=O)nn2-c2ccc(OC)cc2)cc1 (stereo unspecified)
13 | – | – | 0.09 | – | – | – | 0.04 | COc1ccc(-n2nc(C#CC(C)N(O)C(=O)C(C)C)cc2-c2ccc(C)cc2)cc1 (stereo unspecified)
14 | 97 | – | 10 | – | – | – | – | CCOC(=O)CCC(=O)N(O)C(C)C#Cc1cc(-c2ccc(C)cc2)n(-c2ccc(OC)cc2)n1 (stereo unspecified)
15 | – | – | 0.19 | – | – | – | 0.05 | COc1ccc(-n2nc(C#CC(C)N(O)C(=O)C(F)(F)F)cc2-c2ccc(C)cc2)cc1 (stereo unspecified)
16 | – | – | 0.49 | – | – | – | 0.14 | COC(=O)N(O)C(C)C#Cc1cc(-c2ccc(C)cc2)n(-c2ccc(OC)cc2)n1 (stereo unspecified)

More lines, now with the values behind:

Row | SMILES | inhibition [1] [%] | inhibition [2] [%] | IC50 [3] [µM] | inhibition [4] [%] | inhibition [5] [%] | inhibition [6] [%] | IC50 [7] [µM]
17 | COc1ccc(-n2nc(C#CCN(O)C(=O)c3ccncc3)cc2-c2ccc(C)cc2)cc1 | 89 | 17 | 5.5 | – | – | – | –
18 | COc1ccc(-n2nc(C#CC(C)N(O)C(=O)N3CCOCC3)cc2-c2ccc(Cl)cc2)cc1 (stereo unspecified) | – | – | 1.6 | 14 | – | – | –
19 | COc1ccc(-n2nc(C#CC(C)N(O)C(=O)c3cccnc3)cc2-c2ccc(C)cc2)cc1 (stereo unspecified) | – | – | 11.5 | – | 88 | 54 | –
20 | CCC(C#Cc1cc(-c2ccc(Cl)cc2)n(-c2ccc(OC)cc2)n1)N(O)C(N)=O (stereo unspecified) | 91 | – | 70.4 | 0 | – | – | –
21 | COc1ccc(-n2nc(C#CC(C(C)C)N(O)C(N)=O)cc2-c2ccc(Cl)cc2)cc1 (stereo unspecified) | 90 | 38 | 14.5 | – | – | – | –
22 | CCC(=O)N(O)CC#Cc1cc(-c2ccc(C)cc2)n(-c2ccc(OC)cc2)n1 | 100 | 79 | 0.06 | – | – | – | –
23 | COc1ccc(-n2nc(C#CCN(O)C(N)=O)cc2-c2ccc(Cl)cc2)cc1 | – | 9 | – | – | – | 0 | –
24 | CCCNC(=O)N(O)C(C)C#Cc1cc(-c2ccc(Cl)cc2)n(-c2ccc(OC)cc2)n1 (stereo unspecified) | 82 | – | – | 14 | – | – | –
25 | COc1ccc(-n2nc(C#CCN(O)C(=O)c3ccccc3)cc2-c2ccc(C)cc2)cc1 | 100 | 52 | – | – | – | – | –
26 | CCc1ccc(-c2cc(C#CC(C)N(O)C(=O)OC)nn2-c2ccc(OC)cc2)cc1 (stereo unspecified) | 78 | 21 | 0.75 | – | – | – | –
27 | CCOC(=O)CCC(=O)N(O)C(C)C#Cc1cc(-c2ccc(CC)cc2)n(-c2ccc(OC)cc2)n1 (stereo unspecified) | – | 3 | 14 | – | 97 | 52 | –
28 | COc1ccc(-n2nc(C#CC(C)N(O)C(=O)c3ccccc3)cc2-c2ccc(Cl)cc2)cc1 (stereo unspecified) | – | 5 | 5.5 | – | – | – | 14.9
29 | COC(=O)N(O)CC#Cc1cc(-c2ccc(C)cc2)n(-c2ccc(OC)cc2)n1 | 100 | 74 | 0.28 | – | – | – | –
30 | COc1ccc(-n2nc(C#CC(C)N(O)C(=O)N3CCCCC3)cc2-c2ccc(Cl)cc2)cc1 (stereo unspecified) | 76 | – | – | 44 | – | – | –
